According to PubChem BioAssay (NCI):
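Dose response: 5 concentrations. Exposure: 48 h. Format: 96-well plates. Endpoint: linear interpolation; highest concentration if not reached. Definition used: TGI = concentration required for complete inhibition of growth.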

What was measured:
Assay in all cases: growth of human tumour cells (NCI), 48 h
[1] = tested on: 786-0 renal
[2] = tested on: A498 renal
[3] = tested on: A549 NSCLC
[4] = tested on: ACHN renal
[5] = tested on: CAKI-1 renal
[6] = tested on: CCRF-CEM leukemia
[7] = tested on: COLO 205 colon
[8] = tested on: DMS 273 small cell lung
[9] = tested on: EKVX NSCLC
[10] = tested on: HCC-2998 colon
[11] = tested on: HCT-116 colon
[12] = tested on: HL-60(TB) leukemia
[13] = tested on: HOP-18 NSCLC
[14] = tested on: HOP-62 NSCLC
[15] = tested on: HOP-92 NSCLC
[16] = tested on: HT29 colon
[17] = tested on: IGROV1 ovarian
[18] = tested on: K-562 leukemia
[19] = tested on: KM12 colon
[20] = tested on: KM20L2 colon
[21] = tested on: LOX IMVI melanoma
[22] = tested on: LXFL 529 NSCLC
[23] = tested on: M19-MEL melanoma
[24] = tested on: MALME-3M melanoma
[25] = tested on: MOLT-4 leukemia
[26] = tested on: NCI-H226 lung
[27] = tested on: NCI-H23 lung
[28] = tested on: NCI-H460 lung
[29] = tested on: NCI-H522 lung
[30] = tested on: OVCAR-4 ovarian
[31] = tested on: OVCAR-5 ovarian
[32] = tested on: OVCAR-8 ovarian
[33] = tested on: RXF 393 renal
[34] = tested on: RXF-631 renal
[35] = tested on: SF-268 CNS
[36] = tested on: SF-295 CNS
[37] = tested on: SF-539 CNS
[38] = tested on: SK-MEL-2 melanoma
[39] = tested on: SK-MEL-28 melanoma
[40] = tested on: SK-OV-3 ovarian
[41] = tested on: SN12C renal
[42] = tested on: SNB-19 CNS
[43] = tested on: SNB-78 CNS
[44] = tested on: SR leukemia
[45] = tested on: SW-620 colon
[46] = tested on: TK-10 renal
[47] = tested on: U251 CNS
[48] = tested on: UACC-257 melanoma
[49] = tested on: XF 498 CNS
[50] = tested on: DLD-1 colon
[51] = tested on: DMS 114 small cell lung
[52] = tested on: HCT-15 colon
[53] = tested on: M14 melanoma
[54] = tested on: OVCAR-3 ovarian
[55] = tested on: RPMI-8226 leukemia
[56] = tested on: SK-MEL-5 melanoma
[57] = tested on: SNB-75 CNS
[58] = tested on: UACC-62 melanoma
[59] = tested on: UO-31 renal

## COC(=O)C1C(C(=O)OC)C2C(=O)C3C(C(=O)OC)C(C(=O)OC)C3C(=O)C12 (centres undefined)
[1]
  TGI: > 100 µM
[2]
  TGI: > 100 µM
[3]
  TGI: > 100 µM
[4]
  TGI: > 100 µM
[5]
  TGI: > 100000 nM
[6]
  TGI: > 100 µM
[7]
  TGI: > 100 µM
[8]
  TGI: > 100 µM
[9]
  TGI: > 100 µM
[10]
  TGI: > 100 µM
[11]
  TGI: > 100 µM
[12]
  TGI: > 100 µM
[13]
  TGI: > 100 µM
[14]
  TGI: > 100 µM
[15]
  TGI: > 100 µM
[16]
  TGI: > 100 µM
[17]
  TGI: > 100 µM
[18]
  TGI: > 100 µM
[19]
  TGI: > 100 µM
[20]
  TGI: > 100 µM
[21]
  TGI: > 100 µM
[22]
  TGI: > 100 µM
[23]
  TGI: > 100 µM
[24]
  TGI: > 100 µM
[25]
  TGI: > 100 µM
[26]
  TGI: > 100 µM
[27]
  TGI: > 100 µM
[28]
  TGI: > 100 µM
[29]
  TGI: > 100 µM
[30]
  TGI: > 100 µM
[31]
  TGI: > 100 µM
[32]
  TGI: > 100 µM
[33]
  TGI: > 100 µM
[34]
  TGI: > 100 µM
[35]
  TGI: > 100 µM
[36]
  TGI: > 100 µM
[37]
  TGI: > 100 µM
[38]
  TGI: > 100 µM
[39]
  TGI: > 100 µM
[40]
  TGI: > 100 µM
[41]
  TGI: > 100 µM
[42]
  TGI: > 100 µM
[43]
  TGI: > 100 µM
[44]
  TGI: > 100 µM
[45]
  TGI: > 100 µM
[46]
  TGI: > 100 µM
[47]
  TGI: > 100 µM
[48]
  TGI: > 100 µM
[49]
  TGI: > 100 µM

## O=c1/c(=C/c2ccccc2[N+](=O)[O-])sc2nnc(-c3cccnc3)n12
[1]
  TGI: > 100 µM
[2]
  TGI: > 100 µM
[3]
  TGI: > 100 µM
[4]
  TGI: > 100 µM
[5]
  TGI: 2780 nM
[6]
  TGI: > 100 µM
[50]
  TGI: > 100 µM
[51]
  TGI: > 100 µM
[8]
  TGI: > 100 µM
[9]
  TGI: > 100 µM
[10]
  TGI: > 100 µM
[11]
  TGI: > 100 µM
[52]
  TGI: > 100 µM
[12]
  TGI: > 100 µM
[13]
  TGI: > 100 µM
[14]
  TGI: > 100 µM
[15]
  TGI: > 100 µM
[16]
  TGI: > 100 µM
[17]
  TGI: > 100 µM
[18]
  TGI: > 100 µM
[19]
  TGI: > 100 µM
[20]
  TGI: > 100 µM
[21]
  TGI: > 100 µM
[22]
  TGI: > 100 µM
[53]
  TGI: > 100 µM
[23]
  TGI: > 100 µM
[24]
  TGI: > 100 µM
[25]
  TGI: > 100 µM
[26]
  TGI: > 100 µM
[27]
  TGI: > 100 µM
[28]
  TGI: > 100 µM
[54]
  TGI: > 100 µM
[30]
  TGI: > 100 µM
[31]
  TGI: > 100 µM
[32]
  TGI: > 100 µM
[55]
  TGI: > 100 µM
[33]
  TGI: > 100 µM
[34]
  TGI: > 100 µM
[35]
  TGI: > 100 µM
[36]
  TGI: > 100 µM
[37]
  TGI: > 100 µM
[38]
  TGI: > 100 µM
[39]
  TGI: > 100 µM
[56]
  TGI: > 100 µM
[41]
  TGI: > 100 µM
[42]
  TGI: 32.1 µM
[57]
  TGI: > 100 µM
[43]
  TGI: > 100 µM
[44]
  TGI: > 100 µM
[45]
  TGI: 24.5 µM
[46]
  TGI: > 100 µM
[48]
  TGI: > 100 µM
[58]
  TGI: > 100 µM
[59]
  TGI: > 100 µM
[49]
  TGI: > 100 µM
